Assay results published in PMC8667898, “Topo II inhibition and DNA intercalation by new phthalazine-based derivatives as potent anticancer agents: design, synthesis, anti-proliferative, docking, and in vivo studies” (Journal of Enzyme Inhibition and Medicinal Chemistry, 2021).
Like-named read-outs stand apart in the source and are kept apart here.

Legend:
[1] = test system: HepG-2 cells (hepatocellular carcinoma); experiment: MTT anti-proliferative assay, HepG-2; format: cell-based, human; conditions: for IC50: mean ± SD of three separate experiments, read-out: In vitro Cytotoxicity IC50 HepG-2
Protocol: (§1) Anti-proliferative activities of the target compounds were assessed via the standard MTT method[38–40] against three cancer cell lines, namely, hepatocellular carcinoma (HepG-2), colorectal carcinoma (HCT-116), and human breast adenocarcinoma (MCF-7).
(§2) Anti-proliferative activity of the synthesised compounds was estimated using the MTT assay protocol[8]^,[38–40] as shown in Supplementary data.
(§3) 4.2.1. In vitro anti-proliferative activity against MCF-7, HepG-2 and HCT-116 The cells were cultured in RPMI-1640 medium supplemented with 10% fetal bovine serum (FBS), penicillin (100 unit /mL) and streptomycin sulphate (100µg/mL) at 37 °C in a 5% CO2 incubator.
(§4) Then, cells were dropped in 96-well plates at a density of 3-8 × 10^3 cells/well and incubated for two days in a 5% CO2 incubator at 37 °C. Then, the cells were treated with the synthesized compounds and the cell cultures were continued incubated for 24 h. However, Different concentrations of the compound under test (0.0, 5.0, 12.5, 25.0 and 50 mg/ml) were added to the cell monolayer. Then, (3-[4,5-dimethylthiazol-2-yl]- 2,5-diphenyltetrazolium bromide) MTT solution (20 µl, 5mg/mL) was added to each well and incubated for additional 4 h. The formed purple crystals of MTT-formazan were dissolved in 100 µl DMSO each well; the absorbance of each well was measured at 570 nm using a plate reader (EXL 800, USA). All of the compounds were tested three times. The relative cell viability in percentage was calculated.
(§5) The data represented the mean of three independent experiments in triplicate and were expressed as means ± SD. […]

[2] = test system: HCT-116 cells (colorectal carcinoma); experiment: MTT anti-proliferative assay, HCT-116; format: cell-based, human; conditions: for IC50: mean ± SD of three separate experiments, read-out: In vitro Cytotoxicity IC50 HCT-116
Protocol: as §1, with “(MCF-7). Doxorubicin was used in this test as a positive control.” for “(MCF-7).”
as §2, §3
as §4, with “calculated. The results for IC50 values of the active compounds are […]” for “calculated.”
as §5
(§6) of the cells could survive. […]

[3] = test system: MCF-7 cells (human breast adenocarcinoma); experiment: MTT anti-proliferative assay, MCF-7; format: cell-based; conditions: for IC50: mean ± SD of three separate experiments, read-out: In vitro Cytotoxicity IC50 MCF-7
Protocol: as §1, with “(MCF-7). Doxorubicin was used in this test as a positive control.” for “(MCF-7).”
as §2, §3
as §4, with “calculated. The results for IC50 values of the active compounds are […]” for “calculated.”
as §5, §6

Calf thymus DNA = experiment: DNA intercalation assay (DNA/methyl green colorimetric assay); format: binding; conditions: three independent experiments
Protocol: as §5
4.2.2. DNA intercalation assay (DNA/methyl green colorimetric assay)
Affinity of some compounds for DNA-binding was examined in vitro using DNA/methyl green assay using doxorubicin as a positive control. In this test, a mixture of methyl green (20 mg) and Calf thymus DNA (10 mg) (Sigma– Aldrich) were suspended in 0.05 M TrisHCl buffer (100 mL, pH 7.5) containing 7.5 mM MgSO4. This mixture was stirred continuously for 24 h at 37 °C. Then, ethanolic solution of the test compounds was pitted into the wells of a 96-well microtiter tray at a concentration of 10, 100 and 1000 µM. The excess solvent was removed from each well under vacuum, with subsequent addition of 200 µL of the DNA/methyl green solution. The test samples were incubated for 24 h in dark at ambient temperature. After that, absorbance of each sample was determined at 642.5–645 nm. In this test, the methyl green dye reversibly binds to DNA to form persistent colored complex of DNA/methyl green. This color still stables at neutral pH. When the DNA intercalators were added, the methyl green was displaced from DNA with addition of H2O molecule to the dye resulting in formation of the colorless carbinol leading to a decrease in spectrophotometric absorbance. ΔA value (the difference between DNA/methyl green complex and free cabinol) provides the simplest means for detecting the DNA-binding affinity and relative binding strength. IC50′s were determined by linear regression of data plotted on a semi -log scale and the data were compared with doxorubicin as standard DNA intercalator . […]

human Topo II = molecular target: T1, human Topo II (Homo sapiens, UniProt P11388); experiment: Topoisomerase II inhibitory activity (TopoGEN drug screening kit); format: biochemical; conditions: three independent experiments
T1 construct: purchased TopoGEN, Inc., Columbus
T1 sequence (P11388 whole entry): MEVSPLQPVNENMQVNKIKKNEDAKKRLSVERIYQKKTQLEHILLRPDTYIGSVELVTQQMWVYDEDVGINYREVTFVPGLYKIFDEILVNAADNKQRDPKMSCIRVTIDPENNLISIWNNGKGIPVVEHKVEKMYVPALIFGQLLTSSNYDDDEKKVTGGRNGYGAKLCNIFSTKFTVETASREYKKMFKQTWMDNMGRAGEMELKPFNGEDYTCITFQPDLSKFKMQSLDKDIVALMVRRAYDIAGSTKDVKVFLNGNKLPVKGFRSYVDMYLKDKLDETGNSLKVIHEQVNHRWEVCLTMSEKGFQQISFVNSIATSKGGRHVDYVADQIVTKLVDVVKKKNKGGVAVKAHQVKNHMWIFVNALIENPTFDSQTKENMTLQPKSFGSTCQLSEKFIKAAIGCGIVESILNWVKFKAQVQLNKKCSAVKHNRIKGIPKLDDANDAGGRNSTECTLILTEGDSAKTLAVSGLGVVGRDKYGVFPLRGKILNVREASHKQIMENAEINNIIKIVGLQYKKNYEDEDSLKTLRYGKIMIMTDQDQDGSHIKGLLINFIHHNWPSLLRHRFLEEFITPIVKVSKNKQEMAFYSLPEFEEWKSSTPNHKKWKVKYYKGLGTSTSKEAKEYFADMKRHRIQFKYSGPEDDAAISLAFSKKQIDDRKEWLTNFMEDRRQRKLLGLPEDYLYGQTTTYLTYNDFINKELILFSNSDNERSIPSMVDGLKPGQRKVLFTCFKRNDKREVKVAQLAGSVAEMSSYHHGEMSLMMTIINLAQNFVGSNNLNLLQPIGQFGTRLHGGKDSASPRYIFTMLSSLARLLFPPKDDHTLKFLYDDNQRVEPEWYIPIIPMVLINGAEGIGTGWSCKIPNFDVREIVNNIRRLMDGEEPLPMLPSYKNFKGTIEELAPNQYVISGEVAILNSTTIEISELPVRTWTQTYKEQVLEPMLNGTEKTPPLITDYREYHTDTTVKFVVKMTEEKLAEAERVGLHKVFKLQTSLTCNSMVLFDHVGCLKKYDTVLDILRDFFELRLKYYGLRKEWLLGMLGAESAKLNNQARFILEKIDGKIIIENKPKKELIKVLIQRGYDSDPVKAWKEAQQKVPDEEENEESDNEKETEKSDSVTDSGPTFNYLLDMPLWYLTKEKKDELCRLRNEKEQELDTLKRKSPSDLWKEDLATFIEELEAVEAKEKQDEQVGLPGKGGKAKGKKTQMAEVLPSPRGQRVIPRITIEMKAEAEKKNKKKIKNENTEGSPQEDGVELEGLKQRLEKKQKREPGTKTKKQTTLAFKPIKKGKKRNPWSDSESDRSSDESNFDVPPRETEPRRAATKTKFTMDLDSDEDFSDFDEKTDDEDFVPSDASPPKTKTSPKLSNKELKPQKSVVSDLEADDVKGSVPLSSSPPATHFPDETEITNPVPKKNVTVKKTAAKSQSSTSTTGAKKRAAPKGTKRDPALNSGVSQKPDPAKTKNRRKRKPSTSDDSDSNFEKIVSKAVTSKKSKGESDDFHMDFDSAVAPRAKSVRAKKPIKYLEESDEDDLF
Protocol: The activity of topoisomerase II was determined according to the reported procedure described by Patra et al.[42]. […]
4.2.3. Measurement of topoisomerase II activity
Compounds (8a, 8b, 9a, 9c, 9d, 12a, and 12b) were further evaluated to assess their Topo II inhibitory activities. In this test, Topo II drug screening kit (TopoGEN, Inc., Columbus) was utilized to determine the Topo II activity. […] A typical enzyme […]
reaction contained a mixture of human Topo II (2 µL), substrate super coiled pHot1 DNA (0.25 µg), 50 µg/mL test compound (2 µL), and assay buffer (4 µL). The reaction started upon incubation of the mixture in 37 °C for 30 min. The reaction was terminated by addition of 10% sodium dodecylsulphate (2 µL) and proteinase K (50 µg/mL) at 37 °C for 15 min. followed by incubation for 15 min at 37 °C.
Then, the DNA was run on 1% agarose gel in BioRad gel electrophoresis system for 1–2 h followed by staining with GelRedTM stain for 2 h and destained for 15 min with TAE buffer. The gel was imaged Via BioRad’s Gel DocTMEZ system. Both supercoiled and linear strands DNA were incorporated in the gel as markers for DNA-Topo II intercalators. The results of IC50 values were calculated using the GraphPad Prism version 5.0. Each reaction was performed in duplicate, and at least three independent determinations of each IC50 were made.

[4] = ratio of IC50 values vs doxorubicin

For `CCCc1nnc2c3ccccc3c(NN=Cc3ccc(Cl)cc3)nn12` [Compound 9a, 6-[2–(4-Chlorobenzylidene)hydrazineyl]-3-propyl-[1,2, 4]triazolo[3,4-a]phthalazine], the IC50 ([1]; Homo sapiens, HepG2, MTT) was 25.2 ± 0.7 µM, the IC50 ([2]; Homo sapiens, HCT-116, MTT) was 36.3 ± 1.1 µM and the IC50 ([3]; Homo sapiens, MCF7, MTT) was 45.5 ± 1.22 µM. The IC50 (Calf thymus DNA) was 43.8 ± 2.22 µM and the IC50 (human Topo II) was 13.7 µM.

For `CCCc1nnc2c3ccccc3c(NN=Cc3ccc(O)cc3)nn12` [Compound 9c, 4-[(2–(3-Propyl-[1,2, 4]triazolo[3,4-a]phthalazin-6-yl)hydrazineylidene)methyl]-phenol], the IC50 ([1]; Homo sapiens, HepG2, MTT) was 56.3 ± 1.73 µM, the IC50 ([2]; Homo sapiens, HCT-116, MTT) was 78.5 ± 2.04 µM and the IC50 ([3]; Homo sapiens, MCF7, MTT) was 57.8 ± 1.56 µM. The IC50 (human Topo II) was 21.4 ± 1.9 µM.

In the case of `CCCc1nnc2c3ccccc3c(NNC(=O)Nc3ccccc3)nn12` [Compound 7b, N-Phenyl-2–(3-propyl-[1,2, 4]triazolo[3,4-a]phthalazin-6-yl)hydrazine-1-carboxamide], the IC50 ([1]; Homo sapiens, HepG2, MTT) is reported as 45 ± 1.1 µM, the IC50 ([2]; Homo sapiens, HCT-116, MTT) is reported as 48.6 ± 1.6 µM and the IC50 ([3]; Homo sapiens, MCF7, MTT) is reported as 50.7 ± 1.55 µM. The IC50 (Calf thymus DNA) was 36.6 ± 1.82 µM.

Work on `CCCc1nnc2c3ccccc3c(NNC(=S)NCC)nn12` [Compound 8a, N-Ethyl-2–(3-propyl-[1,2, 4]triazolo[3,4-a]phthalazin-6-yl)hydrazine-1-carbothioamide] yielded an IC50 ([1]; Homo sapiens, HepG2, MTT) of 28.9 ± 0.67 µM, an IC50 ([2]; Homo sapiens, HCT-116, MTT) of 25 ± 0.7 µM and an IC50 ([3]; Homo sapiens, MCF7, MTT) of 16.5 ± 0.43 µM. For the same compound, the IC50 (Calf thymus DNA) was 29.6 ± 1.41 µM and the IC50 (human Topo II) was 22.3 ± 2 µM.

`CCCc1nnc2c3ccccc3c(NN=Cc3ccc(F)cc3)nn12` [Compound 9b, 6-[2–(4-Fluorobenzylidene)hydrazineyl]-3-propyl-[1,2, 4]triazolo[3,4-a]phthalazine] gave an IC50 ([1]; Homo sapiens, HepG2, MTT) of 63.9 ± 1.02 µM, an IC50 ([2]; Homo sapiens, HCT-116, MTT) of 61.7 ± 1.89 µM and an IC50 ([3]; Homo sapiens, MCF7, MTT) of 36 ± 0.98 µM. The IC50 (Calf thymus DNA) was 49.9 ± 2.53 µM.

Compound `CCCc1nnc2c3ccccc3c(NNC(=O)NC3CCCCC3)nn12` [Compound 7a, N-Cyclohexyl-2–(3-propyl-[1,2, 4]triazolo[3,4-a]phthalazin-6-yl)hydrazine-1-carboxamide] has an IC50 ([1]; Homo sapiens, HepG2, MTT) of 24.9 ± 0.8 µM, an IC50 ([2]; Homo sapiens, HCT-116, MTT) of 23.8 ± 0.81 µM and an IC50 ([3]; Homo sapiens, MCF7, MTT) of 19.4 ± 0.62 µM. The IC50 (Calf thymus DNA) was 37.1 ± 2 µM.

For `CCCc1nnc2c3ccccc3c3nnc(SCC(=O)Nc4ccc([N+](=O)[O-])cc4)n3n12` [Compound 14b, N-(4-Nitrophenyl)-2-[(6-propylbis([1,2, 4]triazolo)[3,4-a:4',3'-c]phthalazin-3-yl)thio]acetamide], the IC50 ([1]; Homo sapiens, HepG2, MTT) was 10.9 to 14.9 µM, the IC50 ([1]; MTT) was 13.4 ± 0.4 µM and the IC50 ([2]; Homo sapiens, HCT-116, MTT) was 10.9 to 14.9 µM. For the same compound, the IC50 ([2]; MTT) was 12.6 ± 0.45 µM, the IC50 ([3]; Homo sapiens, MCF7, MTT) was 10.9 to 14.9 µM and the IC50 ([3]; MTT) was 14.9 ± 0.55 µM. The IC50 (Calf thymus DNA) was 34.4 ± 2.8 µM and the IC50 (human Topo II) was 13.7 ± 1.02 µM.

Work on `CCCc1nnc2c3ccccc3c3nnc(SCC(N)=O)n3n12` [Compound 15, 2-[(6-Propylbis([1,2, 4]triazolo)[3,4-a:4',3'-c]phthalazin-3-yl)thio]acetamide] yielded an IC50 ([1]; Homo sapiens, HepG2, MTT) of 38.6 ± 1 µM, an IC50 ([2]; Homo sapiens, HCT-116, MTT) of 53.5 ± 1.55 µM and an IC50 ([3]; Homo sapiens, MCF7, MTT) of 26.2 ± 0.77 µM. For the same compound, the IC50 (Calf thymus DNA) was 71.2 ± 3.11 µM.

Compound `CCCc1nnc2c3ccccc3c(NNC(=S)NC3CCCCC3)nn12` [Compound 8b, N-Cyclohexyl-2–(3-propyl-[1,2, 4]triazolo[3,4-a]phthalazin-6-yl)hydrazine-1-carbothioamide] has an IC50 ([1]; Homo sapiens, HepG2, MTT) of 10.9 to 14.9 µM, an IC50 ([1]; MTT) of 10.9 ± 0.34 µM and an IC50 ([2]; Homo sapiens, HCT-116, MTT) of 10.9 to 14.9 µM. The IC50 ([2]; MTT) was 13.8 ± 0.44 µM, the IC50 ([3]; Homo sapiens, MCF7, MTT) was 10.9 to 14.9 µM and the IC50 ([3]; MTT) was 12.5 ± 0.32 µM. It also gave an IC50 (Calf thymus DNA) of 34.6 ± 1.1 µM and an IC50 (human Topo II) of 8.91 ± 0.77 µM.

With `CCCc1nnc2c3ccccc3c3nnc(SCC(=O)Nc4ccc(C(=O)O)cc4)n3n12` [Compound 14a, 4-[2-((6-Propylbis([1,2, 4]triazolo)[3,4-a:4',3'-c]phthalazin-3-yl)thio)acetamido]benzoic acid] the IC50 ([1]; Homo sapiens, HepG2, MTT) was 5.65 ± 0.25 µM, the “times more active than doxorubicin, HepG2” value [1, 4] was “about 1.46 times” and the IC50 ([2]; Homo sapiens, HCT-116, MTT) was 4.35 ± 0.19 µM. The “times more active than doxorubicin, HCT-116” value [2, 4] was about 2.28 times, the IC50 ([3]; Homo sapiens, MCF7, MTT) was 4.36 ± 0.2 µM and the “times more active than doxorubicin, MCF-7” value [3, 4] was about 1.75 times. It also gave an IC50 (Calf thymus DNA) of 28.7 ± 1.71 µM and an IC50 (human Topo II) of 7.64 ± 0.66 µM.

For `CCCc1nnc2c3ccccc3c3nnc(SCC(=O)Nc4ccc(S(N)(=O)=O)cc4)n3n12` [Compound 14c, 2-[(6-Propylbis([1,2, 4]triazolo)[3,4-a:4',3'-c]phthalazin-3-yl)thio]-N-(4-sulfamoyl-phenyl)acetamide], the IC50 ([1]; Homo sapiens, HepG2, MTT) was 24.8 ± 0.88 µM, the IC50 ([2]; Homo sapiens, HCT-116, MTT) was 30.99 ± 0.11 µM and the IC50 ([3]; Homo sapiens, MCF7, MTT) was 20.6 ± 0.88 µM. For the same compound, the IC50 (Calf thymus DNA) was 46.3 ± 2.3 µM.
